Measured values reported in patent publication US20090111736A1, “Orally-Absorbed Solid Dose Formulation for Vancomycin” (SRI International, priority 2007, published 2009).
Where a name gives a salt, the structure may show the parent alone. Read-outs that look alike come from different tables or passages of the source.

Assays:
[1] = cited from earlier work
[2] = rats, cited from earlier work
[3] = In vitro mucosal-to-serosal vancomycin transport, modified Ussing chambers, colon; format: in vitro ADME, rat; conditions: male, rat, pH 7.4, 5 mg/ml, HEPES buffer alone
Description: (§1) We investigated regional variation in permeation of vancomycin (VCM) across various segments of rat intestine and colon in vitro by mounting isolated segments of rat intestine and colon between horizontal modified Ussing chambers. The effects of drug concentration and of addition of a p-glycoprotein inhibitor or permeation enhancer(s) as formulation additives on VCM permeation were also studied in vitro using segments of rat jejunum.
(§2) Methods: A modified Ussing system (Easy mount Ussing system, Physiological Instruments Inc., CA, Item # EM-CSYS-8) with eight sets of chambers was used for all in vitro studies; each set consisted of two parallel diffusion chambers, a heating block for temperature control, needle valves for gas flow adjustment and gas mixing, and Ag/AgCl voltage and current electrodes for measuring transepithelial voltage and for passing current.
(§3) Harvesting of required small intestinal or colon segments of a male rat was performed using experimental procedures described in the literature (Gotoh et al., J Biomol Screen (2005) 10:517-23). The harvested segments of small intestine or colon were mounted on sliders placed between the two horizontal chambers of a modified Ussing system.
(§4) VCM was dissolved in HEPES buffer pH 7.4 (Table 1) previously saturated with 100% O2 or HEPES buffer containing additives selected from permeation enhancer(s) and/or an efflux transport inhibitor (Table 2) to obtain predetermined concentrations of drug and additive(s).
(§5) Drug transport across epithelial membranes of harvested rat small intestine and colon segments, in mucosal-to-serosal (M-to-S) direction, was studied using modified Ussing Chambers. Aliquots of HEPES buffer (5 ml) were initially added to both the mucosal and serosal chambers and allowed to equilibrate for 20 minutes. The HEPES buffer in the mucosal chamber was replaced by a study sample containing VCM alone or VCM and selected additive(s) in HEPES buffer, e.g., 5 mg/mL of VCM dissolved in HEPES buffer containing 10% w/w Labrasol®. Aliquots of 0.5 mL buffer solutions were removed periodically from serosal chambers, and replaced with equal volumes of fresh warm (37±2° C.) HEPES buffer previously saturated with 100% O2. To study the effect of additives in the serosal chamber (i.e., quinidine and sodium decanoate), HEPES buffer containing the selected additive was placed in the serosal chamber and replaced with the same buffer composition during sampling.
(§6) Changes in transepithelial short-circuit current (in micro-Amps) and membrane resistance (in Ohms) as a function of time were monitored continuously during in vitro studies to serve as indicators of tissue viability and drug permeability, respectively. The buffer samples from the receptor chambers were analyzed for VCM content on a high pressure liquid chromatograph (HPLC; Hewlett Packard Model 1100 series).
(§7) The analysis of VCM samples was performed using a reverse phase gradient HPLC method, with a Hypersil BDS C18 column, 5 μm, 150×4.6 mm., mobile phase consisting of 5 mM potassium phosphate monobasic in water (pH 3) as solvent A and acetonitrile as solvent B at a flow rate of 1 ml/min (Farin et al., J Pharm Biomed Anal (1998) 18:367-72). The eluant was monitored by a UV/diode array detector at 280 nm.
(§8) To compare data obtained from different in vitro experiments, the apparent permeability coefficients were calculated using the equation: […]
(§9) Where dQ/dt is the linear appearance rate of mass in receiver compartment, C0 is the initial solute concentration in donor compartment, and A is the surface area (Luo et al., Drug Metab Dispos (2002) 30:763-70).

rat colon = experiment: as above; format: in vitro ADME; conditions: 5 mg/ml vancomycin in HEPES buffer
Description: as §1, §2, §3, §4, §5, §6, §7, §8, §9

[4] = In vitro mucosal-to-serosal vancomycin transport, modified Ussing chambers, jejunum; format: in vitro ADME, rat; conditions: male, rat
Description: as §1, §2, §3, §4
as §5, with “To study the effect of additives in the serosal chamber (i.e., quinidine and sodium decanoate), HEPES buffer containing the selected additive was placed in the serosal chamber and replaced with the same buffer composition during sampling.” left out
as §6, §7, §8, §9

CN[C@H](CC(C)C)C(=O)N[C@H]1C(=O)N[C@@H](CC(N)=O)C(=O)N[C@H]2C(=O)N[C@H]3C(=O)N[C@H](C(=O)N[C@H](C(=O)O)c4cc(O)cc(O)c4-c4cc3ccc4O)[C@H](O)c3ccc(c(Cl)c3)Oc3cc2cc(c3O[C@@H]2O[C@H](CO)[C@@H](O)[C@H](O)[C@H]2O[C@H]2C[C@](C)(N)[C@H](O)[C@H](C)O2)Oc2ccc(cc2Cl)[C@H]1O [Vancomycin hydrochloride]
solubility in water [1]: soluble in water
absolute bioavailability ([2]; oral administration of a water-in-oil-in-water (w/o/w) emulsion, VCM in inner aqueous phase): About 30%
absolute bioavailability ([2]; oral, without any added absorption enhancer or enzyme inhibitor): less than 5%
Papp at 2.5 hr, 5 mg/ml [3]: 0.41 ± 0.07 ×10⁻⁶ cm/s
Ave. Cumulative Amt VCM Released (rat colon; 0.5 hr): 0.00 ± 0.00 µg
Ave. Cumulative Amt VCM Released (rat colon; 1.0 hr): 0.00 ± 0.00 µg
Ave. Cumulative Amt VCM Released (rat colon; 1.5 hr): 1.93 ± 0.38 µg
Ave. Cumulative Amt VCM Released (rat colon; 2.0 hr): 4.20 ± 0.99 µg
Ave. Cumulative Amt VCM Released (rat colon; 2.5 hr): 7.15 ± 1.82 µg
Papp at 2.5 hr, 5 mg/ml ([4]; pH 7.4, 5 mg/ml, HEPES buffer alone, jejunum): 0.62 ± 0.07 ×10⁻⁶ cm/s
Papp at 5 mg/ml ([4]; pH 7.4, 5 mg/ml, jejunum, 1.0 mM sodium decanoate in mucosal chamber): 1.74 ± 0.1 ×10⁻⁶ cm/s
Papp at 5 mg/ml ([4]; pH 7.4, 5 mg/ml, jejunum, 1.0 mM sodium decanoate in serosal chamber): 0.6 ± 0.02 ×10⁻⁶ cm/s
Papp at 5 mg/ml ([4]; pH 7.4, 5 mg/ml, jejunum, HEPES buffer containing 5% w/w Gelucire ® 44/14): 0.78 ± 0.03 ×10⁻⁶ cm/s
Papp at 5 mg/ml ([4]; pH 7.4, 5 mg/ml, jejunum, HEPES buffer containing 5% w/w Gelucire ® 44/14 + 5% w/w Labrasol ®): 0.71 ± 0.03 ×10⁻⁶ cm/s
Papp at 5 mg/ml ([4]; pH 7.4, 5 mg/ml, jejunum, HEPES buffer containing 5% w/w Polysorbate-80): 0.88 ± 0.09 ×10⁻⁶ cm/s
Papp at 5 mg/ml ([4]; pH 7.4, 5 mg/ml, jejunum, HEPES buffer containing 5% w/w Polysorbate-80 + 5% w/w Labrasol ®): 0.53 ± 0.06 ×10⁻⁶ cm/s
Papp at 5 mg/ml ([4]; pH 7.4, 5 mg/ml, jejunum, HEPES buffer containing 5% w/w Vitamin E TPGS + 5% w/w Labrasol ®): 0.56 ± 0.06 ×10⁻⁶ cm/s
Papp at 5 mg/ml ([4]; pH 7.4, 5 mg/ml, jejunum, HEPES buffer containing 10% w/w Labrasol ®): 0.36 ± 0.06 ×10⁻⁶ cm/s
Papp at 5 mg/ml ([4]; pH 7.4, 5 mg/ml, jejunum, HEPES buffer containing 20% w/w Bile salts): 3.67 ± 0.58 ×10⁻⁶ cm/s
Papp at 2.5 hr, 10 mg/mL ([4]; pH 7.4, 10 mg/mL, HEPES buffer alone, jejunum): 0.57 ± 0.13 ×10⁻⁶ cm/s
Papp at 2.5 hr, 25 mg/mL ([4]; pH 7.4, 25 mg/mL, HEPES buffer alone, jejunum): 0.54 ± 0.69 ×10⁻⁶ cm/s
Papp at 2.5 hr, 50 mg/mL ([4]; pH 7.4, 50 mg/mL, HEPES buffer alone, jejunum): 0.39 ± 0.47 ×10⁻⁶ cm/s
Papp at 2.5 hr, 5 mg/mL ([4]; pH 7.4, jejunum, in the presence of 10% w/w Labrasol®): 0.36 ×10⁻⁶ cm/s
Papp at 2.5 hr, 5 mg/ml ([4]; pH 7.4, with quinidine 0.15 mM in the mucosal chamber, 5 mg/ml, jejunum, 0.15 mM Quinidine in mucosal chamber): 0.79 ± 0.08 ×10⁻⁶ cm/s
Papp at 2.5 hr, 5 mg/ml ([4]; pH 7.4, with quinidine 0.15 mM in the serosal chamber, 5 mg/ml, jejunum, 0.15 mM Quinidine in serosal chamber): 2.06 ± 0.16 ×10⁻⁶ cm/s
